Measured values: patent US7449446B2, “Combination product comprising melagatran and dexamethasone” (AstraZeneca AB, priority 2001, dated 2008)

What was measured:
Format in all cases: in vivo, Sprague-Dawley rats
[1] = Plasma concentration of melagatran (LC-MS)
Text: (§1) Sham operated animals received saline instead of endotoxin.

rats given endotoxin = experiment: 125I-fibrinogen in the blood after endotoxin (experimental endotoxaemia); settings: high dose heparin (group VIII); melagatran groups IV-VI; melagatran with dexamethasone groups XVII-XX
Experimental: (§2) The body temperature was maintained at. 38° C. throughout the experiment by external heating.
as §1
Adjustment for multiplicity was done using Scheffe. […] Corrections for multiple comparisons were made according to Bonferroni.

[2] = system: thrombin/antithrombin III complex (TAT); experiment: Thrombin/antithrombin III complex (TAT) in plasma after endotoxin
Experimental: as §2
[…]. […] Sham operated animals received saline instead of endotoxin.

Q: Which results are given for N=C(N)c1ccc(CNC(=O)[C@@H]2CCN2C(=O)[C@H](NCC(=O)O)C2CCCCC2)cc1 [melagatran, HOOC—CH2—(R)Cgl-Aze-Pab-H]?
A: mean plasma concentration of melagatran during the 5 h experiment ([1]; group IV, Mela low 0.13 μmol/kg bolus + 0.32 μmol/kg/h iv): 0.78 ± 0.08 µmol/L; plasma concentration of melagatran combined with heparin ([1]; group IX, Hep low + Mela low): 720 ± 90 nM; mean plasma concentration of melagatran during the 5 h experiment ([1]; group V, Mela med 0.4 μmol/kg bolus + 1.0 μmol/kg/h iv): 2.83+0.45 μmol/l; mean plasma concentration of melagatran during the 5 h experiment ([1]; group VI, Mela high 1.3 μmol/kg bolus + 3.2 μmol/kg/h iv): 6.88 ± 0.42 µmol/L; plasma concentration of melagatran combined with heparin ([1]; group X, Hep low + Mela med): 1970 ± 160 nM; plasma concentration of melagatran in combination with dexamethasone ([1]; high dose group, first value (group XVIII, Dexa low 1 mg/kg + melagatran 0.4 μmol/kg + 1.0 μmol/kg/h)): 1490 ± 130 nM; plasma concentration of melagatran in combination with dexamethasone ([1]; high dose group, second value (group XX, Dexa high 10 mg/kg + melagatran 0.4 μmol/kg + 1.0 μmol/kg/h)): 1280 ± 100 nM; plasma concentration of melagatran in combination with dexamethasone ([1]; low dose group, first value (group XVII, Dexa low 1 mg/kg + melagatran 0.13 μmol/kg + 0.32 μmol/kg/h)): 480 ± 10 nM; plasma concentration of melagatran in combination with dexamethasone ([1]; low dose group, second value (group XIX, Dexa high 10 mg/kg + melagatran 0.13 μmol/kg + 0.32 μmol/kg/h)): 460 ± 20 nM; fibrinogen consumption (rats given endotoxin): completely prevented

Q: Which “TAT (thrombin generation)” value ([2]; dexamethasone groups (discussion)) does the source give for C[C@@H]1C[C@H]2[C@@H]3CCC4=CC(=O)C=C[C@]4(C)[C@@]3(F)[C@@H](O)C[C@]2(C)[C@@]1(O)C(=O)CO [dexamethasone, Dexamethasone] here?
A: below 8 μg/l

Q: For NC[C@H]1CC[C@H](C(=O)O)CC1 [tranexamic acid], which TAT ([2]; measured in some animals, group III, groups XV-XX) is on record?
A: 55.5 ± 6.6 µg/L
